Test results as given in publication PMC4674085, “Towards Prebiotic Catalytic Amyloids Using High Throughput Screening” (PLoS ONE, 2015).
Peptide text beside a SMILES is read from it.

Key:
[1] = Plate reader 4NPA hydrolysis kinetics of purified peptide amyloids at pH 7.3; type: biochemical; conditions: for k cat/K M = k 2 from linear fit to v 0 = [E]0 k 2[S] / k cat/K M / K M / k cat: 4NPA hydrolysis; for k cat/K M = k 2 from linear fit to v 0 = [E]0 k 2[S]: pH 7.3, plate reader A400, triplicate (36 without replicates); for k cat/K M / K M / k cat: pH 7.3 HEPES with zinc(II), 20 μM purified peptide; for k cat/K M: 0.1-1.0 mM 4NPA, 1% CH3CN, A400, Michaelis-Menten fit, triplicate (duplicate for 8, 27, 34, 35); for k cat/K M / k cat: per monomer peptide; for K M / k cat: Michaelis-Menten fit
Description: The reaction buffer consisted of the same buffer as the fibrillization buffer without ZnCl2 and with 1.33 mM 4NPA prepared from a 100 mM stock in CH3CN. The samples of the amyloid library were mixed 1:3 with the reaction buffer yielding 40 μM peptide and, when present 250 μM zinc(II). The absorbance measurements were performed in a BMG Pherastar platereader with a 400 nm band-pass filter (10 nm bandwidth) in 96-well Nunclon Delta surface plates or 384-well Greiner Bio-One non-bind black μclear plates.
The kinetics assays performed on the purified peptides were prepared similarly except that the peptide concentration was 20 μM in the reaction. Furthermore, the various substrate concentrations and replicate samples were randomly distributed over the plate to minimize systematic errors. Various 4NPA concentrations (i.e. 0.1 mM, 0.2 mM, 0.4 mM, 0.6 mM, 1.0 mM) were added from a 100 times stock so that the final CH3CN concentration was always 1%. The linear part of the hydrolysis activity was fit with an extinction coefficient of ε = 9700 M^-1cm^-1 and corrected for the background reaction rate of buffer alone (v bg = 5.0 × 10^-6 Ms^-1) to obtain the initial reaction rate v 0. The average of the initial reaction rates at each substrate concentration were then fit to the Michaelis-Menten type kinetics to obtain k cat, K M and k cat/K M always calculated per monomer peptide. The background reaction rate was obtained similarly using 5 replicates.

[2] = Thioflavin T fluorescence (ThT); type: physicochemical; conditions: crude peptide fibrillized at 160 μM, mixed 10:1 with 50 μM ThT, ex 440 nm em 480 nm
Description: The samples of the amyloid library (50 mM HEPES pH 7.3 or 50 mM NaOAc pH 4) were mixed 10:1 with 50 μM ThT and the increase in fluorescence was measured in a 384-well plate in a BMG Pherastar platereader (ex: 440 nm em: 480 nm). The background signal from the peptides without ThT was subtracted from the one with the ThT present in the sample. Due to the large dynamic range of the signals among the many samples, the measurements were made at two different gain settings to ensure that all of the signals fell within the measureable range.
(§1) Table A and associated data: Biophysical characterization of library
Sequence ThT1 CD2 FTIR3 EM4 ThT CD FTIR EM X-ray5
1. Fold increase in ThT ﬂuorescence over background. […]

[3] = ATR-FTIR, amide I peak of aggregates; type: physicochemical; parameters: key: indicates that no peak was observed within the typical range of stretching frequencies forβ-structure (between dashed lines at 1638 cm−1 and 1615 cm−1); conditions: air-dried pellet, crude peptide
Description: Samples were prepared as for the CD measurements, but instead of re-suspending the samples after centrifugation, 3 μl of H2O were added to the pellet so that it could be placed onto the diamond ATR cell of a Bruker Alpha-p ATR-FTIR spectrometer followed by air-drying before measuring the spectra. Blank subtraction was performed with an empty cell (air) and all measurements were performed without the pressure applicator.
as §1
(§2) Sequence ThT1 CD2 FTIR3 EM4 ThT CD FTIR EM X-ray5 […]
(§3) 3. The peak position in amide I region is given in cm−1. […]

[4] = Circular dichroism (CD), secondary structure of aggregates; type: physicochemical; parameters: key: β+: has minimum near 217 nm; β++: has minimum near 217 nm and a maximum near 197 nm; −: signal too weak to interpret; ?: spectra not typical of any secondary structure
Description: The concept of creating an amyloid library out of a peptide library is only meaningful if the vast majority of the peptides actually form amyloids in at least one of the conditions tested. To establish the validity of our amyloid library we measured circular dichroism (CD), Fourier transform infrared spectroscopy (ATR-FTIR), as well as thioflavin T (ThT) fluorescence of peptides 1–33 at pH 7.3 (50 mM HEPES) and pH 4 (50 mM NaOAc) (see interactive Table A and associated data in S1 File). Based on the analysis of the CD and ATR-FTIR spectra (shown in the interactive Table A in S1 File) all the peptides formed β-structured aggregates in at least one condition. Most of the 33 peptides induced a significant increase in ThT fluorescence in at least one condition. […] The fibrils from a selection of the active peptides were aligned and analyzed by X-ray diffraction (Figures C and D in S1 File). In each case we observed the cross-β diffraction pattern typical of amyloid fibrils, although the degree of sample alignment varied. For two samples, 14 and 27, the difference in meridional and equatorial diffraction intensities was small but easily detected in a plot of the angular dependence of the intensity (Figure D in S1 File). The conclusion that can be drawn out of the multiple analysis techniques is that the 33 peptides that comprise the library are overwhelmingly prone to form fibril-like, β-structured aggregates. The cross-β diffraction of the tested aggregates would imply that they are more specifically all amyloidogenic.
CD measurements were carried out on a Jasco J815. Samples were prepared by centrifuging the amyloid library at 25,000 g for 10 min and then removing the supernatant. The pellets were resuspended at an approximate concentration of 100 μg/ml in 10 mM HEPES pH 7.3 (for mixtures from 50 mM HEPES) or 10 mM NaOAc pH 4 (for mixtures from 50 mM NaOAc), the suspensions were then treated with an ultrasonic probe for 5 s, upon which the solutions were placed in 1 mm cuvettes, diluted as necessary to maintain the detector voltage below 600 V and scanned from 260–190 nm at 50 nm/min, 1 nm band-pass, 2 second integration, averaged over 3 repetitions.
as §1, §2
2. […]

[5] = Transmission electron microscopy (TEM) of fibrils; type: physicochemical; parameters: key: +: ﬁbrils present; −: absent in EM micrographs; conditions: uranyl acetate stain
Description: The samples of the amyloid library (50 mM HEPES pH 7.3 or 50 mM NaOAc pH 4) were applied directly to glow-discharged carbon-coated grids, washed and then stained with uranyl acetate. Images were recorded on a Philips CM 12 electron microscope.
as §1, §2
4. (+) ﬁbrils present or (−) absent in EM micrographs. […]

[6] = Aggregation at pH 4 from soluble material left after 100,000 g centrifugation; type: physicochemical; conditions: 40 μM purified peptide, pH 4, soluble material in supernatant of 100,000 g centrifugation
[7] = NMR-based 4NPA hydrolysis assay at pH 4.3; type: biochemical; conditions: 4NPA hydrolysis by 1D-1H NMR, 50 mM d3-NaOAc pH 4.3, 2% d6-DMSO, 40 μM total purified peptide (mixture 20 μM each), 0.9 mM 4NPA, 25°C, over 15 days, first order fit, no zinc(II)
Description: Purified peptides were solubilized in deuterated DMSO with 1% TFA at a concentration of 4 mM and subsequently diluted to 160 μM in 50 mM deuterated NaOAc buffer at pH 4.3. In the case of the peptide mixture fibrillization (12/21), each peptide was 80 μM. Fibrillization occurred over 5 days after which the sample was diluted to 40 μM total peptide in 50 mM buffer with 0.9 mM 4NPA (from a 90 mM stock solution in d6-DMSO) and a final concentration of d6-DMSO of 2%. From this reaction mixture 500 μl was transferred to a 5 mm NMR tube and measurements were performed in a 600 MHz Bruker NMR spectrometer equipped with a cryo-probe.
The hydrolysis kinetics were monitored in a continuous series of 1D-^1H experiments each consisting of 32 scans at 25°C and each requiring 17 min. In this manner, several time segments lasting between 8 and 17 hours were collected over a period of 15 days. Between measurements, the samples were kept at 25°C.
Data processing and peak integration was performed with Topspin3.2 (Bruker). Relevant peaks used for the analysis were the 4 aromatic protons of both 4NPA and of its product (p-nitrophenol) as well as the methyl groups of 4NPA and acetic acid. The ratio of the sum of integrals for the product protons to the sum of integrals for all protons was used to calculate the substrate concentration. […]

[8] = X-ray fiber diffraction of aligned fibrils; type: physicochemical; conditions: washed pellets dried between glass capillaries, room temperature
Description: The samples were centrifuged, the pellet resuspended (ultrapure water or 10 mM NaOAc pH 4) and centrifuged again. The washed pellets were resuspended in a minimal amount of water and 4 μl of the suspension were pipetted between the melted ends of two glass capillaries, which were then left to dry overnight in a sealed petri dish. The dried material was placed in an X-ray beam (Rigaku MicroMax-007HF) at room temperature for a 20 min exposure and diffraction data was collected on a Mar345 image plate detector.
Table A and associated data: Biophysical characterization of library […]
1. Fold increase in ThT ﬂuorescence over background.
2. CD spectra classiﬁed as follows: (β+) has minimum near 217 nm, (β++) has minimum near 217 nm and a maximum near 197 nm, (−) signal too weak to interpret, (?) spectra not typical of any secondary […]
as §3
within the typical range of stretching frequencies forβ-structure (between dashed lines at 1638 cm−1 and […]
4. (+) ﬁbrils present or (−) absent in EM micrographs.
5. Diﬀraction images recorded for the aligned ﬁbrils of 5 diﬀerent peptides (see materials and methods).

[9] = pH 4.0, pellet (25,000 g, 10 min) resuspended ~100 μg/ml in 10 mM NaOAc pH 4, crude peptide
[10] = pH 7.3, pellet (25,000 g, 10 min) resuspended ~100 μg/ml in 10 mM HEPES pH 7.3, crude peptide

Compound | k cat/K M = k 2 from linear fit to v 0 = [E]0 k 2[S] [1] [M⁻¹ s⁻¹] | k cat/K M [1] [M⁻¹ s⁻¹] | K M [1] [µM] | k cat [1] | ThT, fold increase in ThT fluorescence over background ([2]; pH 4.0, 50 mM NaOAc) [fold] | ThT, fold increase in ThT fluorescence over background ([2]; pH 7.3, 50 mM HEPES) [fold] | FTIR peak position in amide I region ([3]; pH 4.0 (50 mM NaOAc)) | FTIR peak position in amide I region ([3]; pH 7.3 (50 mM HEPES)) [cm⁻¹] | CD spectrum class [4, 9] | CD spectrum class [4, 10] | EM, fibrils in EM micrographs ([5]; pH 7.3, 50 mM HEPES) | also measured
c1c[nH]cn1 [Imidazole, reference compound] | 0.199 ± 0.008 |  |  |  |  |  |  |  |  |  |  | 
CC(=O)N[C@@H](Cc1c[nH]cn1)C(=O)NCC(=O)N[C@@H](Cc1c[nH]cn1)C(N)=O [Peptide 36, Ac-HGH-CONH2] (Ac-His-Gly-His-NH2) | 0.041 ± 0.005 |  |  |  |  |  |  |  |  |  |  | zinc(II) dependence of 4NPA hydrolysis activity ([1]; pH 7.3): not zinc(II)-dependent
Ac-IHIHIQI-NH2 [Peptide 34, Ac-IHIHIQI-CONH2, reference compound] |  | 15.76 ± 0.96 | 1570 ± 290 | 2.47±0.32 10^-2s^-1 |  |  |  |  |  |  |  | 
Ac-YVHVAVHV-NH2 [Peptide 28, Ac-YVHVAVHV-CONH2] |  | 0.215 ± 0.007 | 1950 ± 230 | 0.042±0.004 10^-2s^-1 | 1 | 114 | − | 1624 | − | β+ | + | 
Ac-YVHVSVHV-NH2 [Peptide 10, Ac-YVHVSVHV-CONH2] | 0.172 ± 0.003 |  |  |  | 1 | 29 | − | 1623 | − | β+ | + | 
Ac-YVSVSVHV-NH2 [Peptide 12, Ac-YVSVSVHV-CONH2] |  |  |  |  | 5 | 183 | 1621 cm⁻¹ | 1623 |  | β++ |  | aggregation behaviour at pH 4 [6]: began to aggregate within minutes; k cat/K M [7]: 6145.6±8.5 10^-6M^-1s^-1; X-ray diffraction of aligned fibrils [8]: cross-β; EM, fibrils in EM micrographs ([5]; pH 4.0, 50 mM NaOAc): +
